Consider twelve compounds from ChEMBL document CHEMBL4011618, “Discovery of Potent, Selective Stem Cell Factor Receptor/Platelet Derived Growth Factor Receptor Alpha (c-KIT/PDGFRα) Dual Inhibitor for the Treatment of Imatinib-Resistant Gastrointestinal Stromal Tumors (GISTs)” (J Med Chem, 2017).

Data set [1] has as its target Fibroblast growth factor receptor 1 (Homo sapiens, UniProt P11362). The data set is described as follows: Inhibition of FGFR1 (unknown origin) using FAM-labeled peptide as substrate preincubated for 10 mins followed by substrate addition in presence of ATP by mobility shift assay.
Data set [2] concerns the target Vascular endothelial growth factor receptor 2 (Homo sapiens, UniProt P35968).
Description: Inhibition of VEGFR2 (unknown origin) using FAM-labeled peptide as substrate preincubated for 10 mins followed by substrate addition in presence of ATP by mobility shift assay
The target in data set [3] is T1, Platelet-derived growth factor receptor alpha (Homo sapiens, UniProt P16234). The data set is described as follows: Inhibition of PDGFRalpha (unknown origin) using FAM-labeled peptide as substrate preincubated for 10 mins followed by substrate addition in presence of ATP by mobility shift assay.
T1 sequence (P16234 whole entry): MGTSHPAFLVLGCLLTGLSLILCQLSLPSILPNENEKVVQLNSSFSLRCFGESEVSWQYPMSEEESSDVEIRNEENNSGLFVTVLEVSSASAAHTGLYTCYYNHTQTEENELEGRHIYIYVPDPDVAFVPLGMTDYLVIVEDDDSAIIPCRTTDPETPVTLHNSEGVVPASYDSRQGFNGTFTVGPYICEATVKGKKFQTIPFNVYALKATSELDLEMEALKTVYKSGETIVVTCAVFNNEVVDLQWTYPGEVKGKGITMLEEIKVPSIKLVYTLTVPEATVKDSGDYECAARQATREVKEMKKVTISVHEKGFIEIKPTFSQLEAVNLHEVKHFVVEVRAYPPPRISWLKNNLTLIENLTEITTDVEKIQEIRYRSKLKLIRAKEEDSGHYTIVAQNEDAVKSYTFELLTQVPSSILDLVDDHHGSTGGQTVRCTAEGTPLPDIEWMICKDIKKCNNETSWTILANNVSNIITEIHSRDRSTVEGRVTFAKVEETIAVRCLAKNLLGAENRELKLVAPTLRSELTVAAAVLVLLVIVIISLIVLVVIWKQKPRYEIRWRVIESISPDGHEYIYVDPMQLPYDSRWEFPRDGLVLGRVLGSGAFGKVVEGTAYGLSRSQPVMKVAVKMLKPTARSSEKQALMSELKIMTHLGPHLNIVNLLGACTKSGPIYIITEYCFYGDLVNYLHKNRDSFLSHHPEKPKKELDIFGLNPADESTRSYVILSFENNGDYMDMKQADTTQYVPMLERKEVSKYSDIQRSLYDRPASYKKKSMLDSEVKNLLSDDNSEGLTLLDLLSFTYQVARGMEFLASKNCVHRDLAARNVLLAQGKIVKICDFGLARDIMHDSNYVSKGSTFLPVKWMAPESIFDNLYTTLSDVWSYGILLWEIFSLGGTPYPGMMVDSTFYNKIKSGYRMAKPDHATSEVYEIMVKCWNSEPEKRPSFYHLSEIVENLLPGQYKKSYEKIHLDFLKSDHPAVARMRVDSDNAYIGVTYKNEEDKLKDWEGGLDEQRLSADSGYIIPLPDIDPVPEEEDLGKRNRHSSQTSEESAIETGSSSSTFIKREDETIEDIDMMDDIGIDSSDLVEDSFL
The subject of data set [4] is Mast/stem cell growth factor receptor Kit (Homo sapiens), P10721 [T670I].
Description: Inhibition of TEL-fused cKIT T670I mutant (unknown origin) expressed in mouse BAF3 cells assessed as cell growth inhibition after 72 hrs by cell titer-glo assay
Data set [5] deals with T1, Platelet-derived growth factor receptor alpha.
Description: Inhibition of TEL-fused PDGFRalpha (unknown origin) expressed in mouse BAF3 cells assessed as cell growth inhibition after 72 hrs by cell titer-glo assay
Data set [6] deals with T2, Mast/stem cell growth factor receptor Kit (Homo sapiens, UniProt P10721).
T2 sequence (P10721 whole entry): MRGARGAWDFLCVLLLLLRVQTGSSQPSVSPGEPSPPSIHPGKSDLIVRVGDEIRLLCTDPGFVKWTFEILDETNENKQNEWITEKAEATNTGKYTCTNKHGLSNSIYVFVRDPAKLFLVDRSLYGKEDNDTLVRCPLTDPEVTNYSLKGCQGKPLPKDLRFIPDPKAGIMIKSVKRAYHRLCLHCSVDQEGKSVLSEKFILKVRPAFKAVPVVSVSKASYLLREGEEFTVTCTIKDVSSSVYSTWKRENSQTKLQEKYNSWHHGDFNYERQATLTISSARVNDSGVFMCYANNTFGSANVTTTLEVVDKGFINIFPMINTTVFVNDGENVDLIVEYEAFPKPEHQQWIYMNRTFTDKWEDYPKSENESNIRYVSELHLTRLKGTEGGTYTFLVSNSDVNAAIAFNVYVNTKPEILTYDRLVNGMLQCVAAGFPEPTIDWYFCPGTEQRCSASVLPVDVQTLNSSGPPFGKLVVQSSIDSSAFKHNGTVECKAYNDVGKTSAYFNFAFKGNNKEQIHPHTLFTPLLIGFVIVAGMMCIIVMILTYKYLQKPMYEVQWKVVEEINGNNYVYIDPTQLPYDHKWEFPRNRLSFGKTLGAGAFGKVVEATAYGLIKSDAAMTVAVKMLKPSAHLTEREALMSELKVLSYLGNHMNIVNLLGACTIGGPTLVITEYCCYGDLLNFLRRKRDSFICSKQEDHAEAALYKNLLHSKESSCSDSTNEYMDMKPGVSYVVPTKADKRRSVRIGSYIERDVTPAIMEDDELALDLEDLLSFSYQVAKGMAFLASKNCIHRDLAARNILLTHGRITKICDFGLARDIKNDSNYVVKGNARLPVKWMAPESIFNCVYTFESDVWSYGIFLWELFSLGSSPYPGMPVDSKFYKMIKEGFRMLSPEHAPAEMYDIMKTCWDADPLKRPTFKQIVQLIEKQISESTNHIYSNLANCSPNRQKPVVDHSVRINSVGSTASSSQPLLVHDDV
Description: Inhibition of TEL-fused cKIT (unknown origin) expressed in mouse BAF3 cells assessed as cell growth inhibition after 72 hrs by cell titer-glo assay
Data set [7] has as its system Platelet-derived growth factor receptor alpha (Homo sapiens), P16234 [T674I].
Description: Inhibition of TEL-fused PDGFRalpha T674I mutant (unknown origin) expressed in mouse BAF3 cells assessed as cell growth inhibition after 72 hrs by cell titer-glo assay
For data set [8], the target named is T2, Mast/stem cell growth factor receptor Kit. The source holds these as a separate data set.
Description: Inhibition of cKIT (unknown origin) using FAM-labeled peptide as substrate preincubated for 10 mins followed by substrate addition in presence of ATP by mobility shift assay
The target in data set [9] is Vascular endothelial growth factor receptor 3 (Homo sapiens, UniProt P35916). The data set is described as follows: Inhibition of VEGFR3 (unknown origin) using FAM-labeled peptide as substrate preincubated for 10 mins followed by substrate addition in presence of ATP by mobility shift assay.
The target in data set [10] is Platelet-derived growth factor receptor beta (Homo sapiens, UniProt P09619). The data set is described as follows: Inhibition of PDGFRbeta (unknown origin) using FAM-labeled peptide as substrate preincubated for 10 mins followed by substrate addition in presence of ATP by mobility shift assay.
The target of data set [11] is Vascular endothelial growth factor receptor 1 (Homo sapiens, UniProt P17948). The data set is described as follows: Inhibition of VEGFR1 (unknown origin) using FAM-labeled peptide as substrate preincubated for 10 mins followed by substrate addition in presence of ATP by mobility shift assay.
The target in data set [12] is Receptor-type tyrosine-protein kinase FLT3 (Homo sapiens, UniProt P36888). In words: Inhibition of FLT3 (unknown origin) using FAM-labeled peptide as substrate preincubated for 10 mins followed by substrate addition in presence of ATP by mobility shift assay.
Data set [13] in a line: Antiproliferative activity against mouse BAF3 cells assessed as cell growth inhibition after 72 hrs by cell titer-glo assay. The data set is classed as cell-based. Background: ATP-based viability assays read luminescence as a measure of living cells.
Data set [14] concerns GISTT1. The data set is described as follows: Antitumor activity against human GISTT1 cells xenografted in nu/nu mouse assessed as tumor growth inhibition at 100 mg/kg, ip administered daily for 28 days relative to control. The format is functional. The conditions noted are these: 672 h, read-out: TGI. On the technique in general: A xenograft is tissue or cells of one species grown in another, often human tumour cells in immunodeficient mice.

Data set [15] deals with Mast/stem cell growth factor receptor Kit (Homo sapiens), P10721 [C674S].
Description: Inhibition of TEL-fused cKIT C674S mutant (unknown origin) expressed in mouse BAF3 cells assessed as cell growth inhibition after 72 hrs by cell titer-glo assay
In data set [16] the test system is GISTT1. In words: Antiproliferative activity against human GISTT1 cells assessed as cell growth inhibition after 72 hrs by cell titer-glo assay. The format is functional. The conditions noted are these: GISTT1, 72 h.
Data set [17] deals with Mast/stem cell growth factor receptor Kit (Homo sapiens), P10721 [V654A].
Description: Inhibition of TEL-fused cKIT V654A mutant (unknown origin) expressed in mouse BAF3 cells assessed as cell growth inhibition after 72 hrs by cell titer-glo assay
Data set [18] relates to Mast/stem cell growth factor receptor Kit (Homo sapiens), P10721 [V559D,V654A].
Data set [19] deals with Mast/stem cell growth factor receptor Kit (Homo sapiens), P10721 [A829P].
Description: Inhibition of TEL-fused cKIT A829P mutant (unknown origin) expressed in mouse BAF3 cells assessed as cell growth inhibition after 72 hrs by cell titer-glo assay
A further data set deals with KU812 cell line. The data set is described as follows: Antiproliferative activity against human KU812 cells assessed as cell growth inhibition after 72 hrs by cell titer-glo assay. The format is functional. As to conditions: KU812, 72 h.
Data set [20] is described as follows: Antiproliferative activity against CHO cells assessed as cell growth inhibition after 72 hrs by cell titer-glo assay. The data set is classed as cell-based, Cricetulus griseus. As to conditions: chinese hamster.
For another data set, the system named is GIST882. In words: Antiproliferative activity against human GIST882 cells assessed as cell growth inhibition after 72 hrs by cell titer-glo assay. The data set is classed as functional. The conditions noted are these: GIST882, 72 h.
The next data set has as its system MEG-01. In words: Antiproliferative activity against human MEG01 cells assessed as cell growth inhibition after 72 hrs by cell titer-glo assay. The data set is classed as functional. The conditions noted are these: MEG-01, 72 h.
Data set [21] can be described thus: Antiproliferative activity against CHL cells assessed as cell growth inhibition after 72 hrs by cell titer-glo assay. The conditions noted are these: chinese hamster. The data set is classed as cell-based, Cricetulus griseus.
In data set [22] the test system is Mast/stem cell growth factor receptor Kit (Homo sapiens), P10721 [N822K].
Description: Inhibition of TEL-fused cKIT N822K mutant (unknown origin) expressed in mouse BAF3 cells assessed as cell growth inhibition after 72 hrs by cell titer-glo assay
In a further data set the test system is BaF3. The conditions noted are these: Mus musculus.
Data set [23] in a line: Antiproliferative activity against human GIST48B cells assessed as cell growth inhibition after 72 hrs by cell titer-glo assay. The data set is classed as functional.
Data set [24] relates to Mast/stem cell growth factor receptor Kit (Homo sapiens), P10721 [L576P].
Description: Inhibition of TEL-fused cKIT L576P mutant (unknown origin) expressed in mouse BAF3 cells assessed as cell growth inhibition after 72 hrs by cell titer-glo assay

One may read the IC50 as the concentration needed to halve the response being measured. By GI50 is commonly meant the concentration giving 50% growth inhibition.

Structures are written as SMILES. Calls of active or inactive are those of the source. The rule behind the calls is not given here.

Chain of Platelet-derived growth factor receptor alpha (Homo sapiens), P16234 [T674I] (P16234 whole entry T674I): as the sequence (P16234 whole entry) above, with T674I counted along it
Chain of Fibroblast growth factor receptor 1 (P11362 whole entry): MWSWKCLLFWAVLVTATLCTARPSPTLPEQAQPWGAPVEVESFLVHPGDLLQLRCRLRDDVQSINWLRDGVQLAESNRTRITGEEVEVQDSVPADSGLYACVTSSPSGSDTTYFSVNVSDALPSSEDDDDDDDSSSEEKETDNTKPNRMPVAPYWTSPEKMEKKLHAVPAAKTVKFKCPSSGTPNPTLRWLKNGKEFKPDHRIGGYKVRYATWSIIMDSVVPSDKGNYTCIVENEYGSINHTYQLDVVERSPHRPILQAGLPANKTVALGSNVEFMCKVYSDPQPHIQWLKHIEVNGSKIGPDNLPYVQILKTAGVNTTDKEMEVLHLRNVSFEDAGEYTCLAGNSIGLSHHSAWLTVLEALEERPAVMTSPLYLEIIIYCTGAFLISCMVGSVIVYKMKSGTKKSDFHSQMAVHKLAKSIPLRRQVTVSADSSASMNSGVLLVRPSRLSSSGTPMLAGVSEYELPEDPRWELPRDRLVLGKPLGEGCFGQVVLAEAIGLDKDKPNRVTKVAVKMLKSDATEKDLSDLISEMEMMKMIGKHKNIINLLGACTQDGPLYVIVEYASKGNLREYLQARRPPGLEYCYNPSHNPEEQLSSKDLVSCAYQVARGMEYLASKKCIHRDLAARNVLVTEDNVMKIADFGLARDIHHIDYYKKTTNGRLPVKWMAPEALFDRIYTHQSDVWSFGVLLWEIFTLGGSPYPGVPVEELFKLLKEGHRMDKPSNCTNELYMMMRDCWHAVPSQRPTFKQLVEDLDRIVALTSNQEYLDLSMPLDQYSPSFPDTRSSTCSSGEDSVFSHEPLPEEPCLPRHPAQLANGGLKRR
Chain of Mast/stem cell growth factor receptor Kit (Homo sapiens), P10721 [T670I] (P10721 whole entry T670I): as the sequence (P10721 whole entry) above, with T670I counted along it
Description for BaF3: Antitumor activity against mouse BAF3 cells harboring TEL-cKIT-T670I mutant allografted in nu/nu mouse assessed as tumor growth inhibition at 100 mg/kg, ip administered daily for 11 days relative to control

As for `Cc1n[nH]c2nccc(-c3ccc(NC(=S)Nc4cccc(C(F)(F)F)c4)cc3)c12`, the IC50 was found to be 42900 nM in [1], 8010 nM in data set [2] and 1570 nM in data set [3].
`Cc1n[nH]c2nccc(-c3ccc(NC(=O)Nc4cccc(Br)c4)cc3)c12`: the IC50 was over 50000 nM in data set [1], 3150 nM in data set [2] and 137 nM in data set [3].
Taken in the same sequence, the figures for `Cc1cccc(NC(=O)Nc2ccc(C3CC(O)=Nc4[nH]nc(C)c43)cc2)c1` (stereo unspecified) were 18300 nM, over 50000 nM and over 50000 nM.
With `Cc1n[nH]c2nccc(-c3ccc(NC(=O)Nc4cccc(C(F)(F)F)c4)cc3)c12`, the IC50 is over 50000 nM in [1], 1920 nM in data set [2] and 106 nM in data set [3].
As to `Cc1ccc(F)c(NC(=O)Nc2ccc(-c3cc(O)nc4[nH]nc(C)c34)cc2)c1`, the GI50 in data set [4] was over 10000 nM; in data set [5], 204 nM; in data set [6], over 10000 nM; in [7] it was over 10000 nM. Further, the IC50 in data set [1] was 4640 nM; in data set [2], 1860 nM; in data set [3], 1180 nM.
As for `Cc1ccc(F)c(NC(=O)Nc2ccc(-c3ccnc4[nH]nc(C)c34)cc2)c1`, the IC50 in data set [1] was over 50000 nM; in data set [2] it was 4290 nM; in data set [3], 87 nM.
Consider `Cc1cccc(NC(=O)Nc2ccc(-c3cc(O)nc4[nH]nc(C)c34)cc2)c1`, for which the IC50 in data set [1] worked out at 2260 nM; in data set [2], 1220 nM; in data set [3], 560 nM.
As for `Cc1cccc(NC(=O)Nc2ccc(-c3ccnc4[nH]nc(C)c34)cc2)c1`, the GI50 in data set [4] came to 318 nM; in [5] it was 10.4 nM; in data set [6] it was 248 nM; in [7], 1170 nM. Moreover, the IC50 in [1] was over 50000 nM; in data set [2] it was 1230 nM; in data set [8] it was 2.1 nM; in data set [3] it was 40 nM; in [9] it was 376 nM; in data set [10] it was 197 nM. For the same compound, the IC50 in data set [11] turned out to be 3490 nM; in [12], 1880 nM.
For `Cc1ccc(NC(=O)c2ccc(CN3CCN(C)CC3)cc2)cc1Nc1nccc(-c2cccnc2)n1` [IMATINIB], the GI50 at 72 h was 4690 nM in data set [13], over 10000 nM in [20] and over 10000 nM in data set [21]. Moreover, the inhibition in vivo at 100 mg/kg in the data set on GISTT1 [14] turned out to be 87.3%. For the same compound, the GI50 in data set [15] is 24.9 nM; in the data set with GISTT1 [16] it was 3 nM; in [17], 803 nM; in [18], 803 nM; in [19] it was 148 nM; with KU812 cell line, 110 nM. Further, the GI50 was 20 nM in the data set with GIST882; 45 nM in the data set on MEG-01; 1470 nM in data set [22]; 6990 nM in data set [23]; over 10000 nM in [7]; 45.1 nM in data set [24]. Further, the TGI entry in the data set with BaF3 was “inactive”.
Consider `Cc1n[nH]c2nccc(-c3ccc(NC(=S)Nc4cccc(Br)c4)cc3)c12`, for which the IC50 in data set [1] came to 20000 nM; in [2], 6240 nM; in data set [3], 1080 nM.
For `Cc1ccc(F)c(NC(=O)Nc2ccc(C3CC(O)=Nc4[nH]nc(C)c43)cc2)c1` (stereo unspecified), the GI50 in data set [4] is over 10000 nM; in data set [5], 4250 nM; in [6] it was over 10000 nM; in [7], over 10000 nM. In addition, the IC50 in [1] was 33800 nM; in data set [2] it was over 50000 nM; in [3] it was over 50000 nM.
For `Cc1n[nH]c2nccc(-c3ccc(NC(=O)NCCCc4ccccc4)cc3)c12`, the GI50 in data set [4] was found to be 1670 nM; in [5], 10.4 nM; in data set [6] it was 3020 nM; in data set [7] it was 2050 nM. The IC50 in data set [2] stood at 3860 nM; in data set [8] it was 1.7 nM; in data set [3], 24 nM.
